What was measured:
Format in all cases: in vivo
[1] = tested on: mustard beetle larvae (Phaedon cochleariae); assay: Phaedon cochleariae spray test; conditions: mortality, Chinese cabbage leaf-disks sprayed
Protocol: (§1) For all examples efficiencies of the compositions comprising at least one BCA and at least one specific insecticide has been determined by the “Colby-formula”: The expected efficacy of a given combination of two compounds is calculated as follows (see Colby, S. R., “Calculating Synergistic and antagonistic Responses of Herbicide Combinations”, Weeds 15, pp. 20-22, 1967):
(§2) • X is the efficacy expressed in % mortality of the untreated control for test compound A at a concentration of m ppm respectively m g/ha, • Y is the efficacy expressed in % mortality of the untreated control for test compound B at a concentration of n ppm respectively n g/ha, • E is the efficacy expressed in % mortality of the untreated control using the mixture of A and B at m and n ppm respectively m and n g/ha, then
(§3) If the observed insecticidal efficacy of the combination is higher than the one calculated as “E”, then the combination of the two compounds is more than additive, i.e., there is a synergistic effect.
(§4) To produce a suitable preparation of active compound, 1 part by weight of active compound is mixed with the stated amount of solvent and emulsifier, and the concentrate is diluted with emulsifier-containing water to the desired concentration. To produce a suitable preparation of a spore suspension the spores are diluted with emulsifier-containing water to the desired concentration.
Chinese cabbage (Brassica pekinensis) leaf-disks are sprayed with a preparation of the active ingredient of the desired concentration. Once dry, the leaf disks are infested with mustard beetle larvae (Phaedon cochleariae).
After the specified period of time, mortality in % is determined. 100% means all beetle larvae have been killed and 0% means none of the beetle larvae have been killed. The mortality values determined thus are recalculated using the Colby-formula (see above).

[2] = tested on: green peach aphid (Myzus persicae); assay: Myzus persicae spray test (MYZUPE); conditions: mortality, Chinese cabbage leaf-disks sprayed
Protocol: as §1, §2, §3, §4
Chinese cabbage (Brassica pekinensis) leaf-disks infected with all instars of the green peach aphid (Myzus persicae), are sprayed with a preparation of the active ingredient of the desired concentration.
After the specified period of time, mortality in % is determined. 100% means all aphids have been killed; 0% means none of the aphids have been killed. The mortality values determined thus are recalculated using the Colby-formula (see above).

[3] = tested on: larvae of the diamondback moth (Plutella xylostella); assay: Plutella xylostella spray test; conditions: mortality, cabbage leaves sprayed, 0.05 ppm
Protocol: as §1, §2, §3
(§5) To produce a suitable preparation of active compound, 1 part by weight of active compound is mixed with the stated amount of solvent and emulsifier, and the concentrate is diluted with emulsifier-containing water to the desired concentration. […]
After the specified period of time, the mortality in % is determined. […] The mortality values determined thus are recalculated using the Colby-formula (see above).

[4] = tested on: two spotted spidermite (Tetranychus urticae); assay: Tetranychus urticae spray test, OP-resistant; conditions: mortality, French beans sprayed, 20 g ai/ha
Protocol: as §1, §2, §3, §5
(§6) After the specified period of time, mortality in % is determined. […] The mortality values determined thus are recalculated using the Colby-formula (see above).

[5] = tested on: fall armyworm larvae (Spodoptera frugiperda); assay: Spodoptera frugiperda spray test; conditions: mortality, maize leaf sections sprayed, 0.8 g ai/ha
Protocol: as §1, §2, §3
To produce a suitable preparation of the active compound, 1 part by weight of active compound is mixed with the stated amount of solvent and emulsifier, and the concentrate is diluted with emulsifier-containing water to the desired concentration. […]
as §6

[6] = tested on: caterpillars of the beet army worm (Spodoptera exigua); assay: Spodoptera exigua spray test; conditions: mortality, cotton leaves sprayed, 0.1 ppm
Protocol: as §1, §2, §3, §5, §6

SMILES | Efficacy in % after 6d ([1]; 0.16 g ai/ha) | Efficacy in % after 6d ([1]; 0.8 g ai/ha) | Efficacy in % after 6d ([2]; 4 g/ha) | Efficacy in % after 3d [3] | Efficacy in % after 6d [4] | Efficacy in % after 6d ([2]; 0.16 g/ha) | Efficacy in % after 2d ([1]; 100 g ai/ha, 2 d) | Efficacy in % after 2d ([5]; 2 d) | Efficacy in % after 6d ([5]; 6 d) | Efficacy in % after 6d ([2]; 100 g/ha) | Efficacy in % after 3d [6]
CNC(=O)c1cc(Cl)cc(C)c1NC(=O)c1cc(Br)nn1-c1ncccc1Cl [Chlorantraniliprole (I231), Chlorantraniliprole] | 0% | 0% | 0% | 30% | – | – | – | – | – | – | –
CNC(=O)c1cc(C#N)cc(C)c1NC(=O)c1cc(Br)nn1-c1ncccc1Cl [Cyantraniliprole (I232), Cyantraniliprole] | – | 33% | – | – | 0% | 0% | – | – | – | – | –
Cc1cc(C(F)(C(F)(F)F)C(F)(F)F)ccc1NC(=O)c1cccc(I)c1C(=O)NC(C)(C)CS(C)(=O)=O [Flubendiamide (I233), Flubendiamide] | – | – | – | – | – | – | 0% | 0% | 0% | 0% | 30%
